Reference: patent US4218460A, “Nitroimidazoles” (BASF Aktiengesellschaft, priority 1978, dated 1980)
≈ marks a conversion by molar mass, not a printed value. Values belong to the molecule of their own block, whether it stands above or below them.

Columns and labels:
Trichomonas vaginalis = assay: Minimum inhibition concentration on Trichomonas vaginalis, in vitro quantitative tube-dilution test; format: cell-based; conditions: for Relative effectiveness Metronidazol = 1.0: MIC on Trichomonas vaginalis relative to Metronidazol = 1.0; for MIC: Trichomonas vaginalis, in vitro tube-dilution test
Procedure: Minimum inhibition concentrations (MIC) on Trichomonas
^1 The tests were carried out in vitro using the quantitative
tubedilutiom test described by P. Klein, Bakteriologische Geundlagen der
chemotherapeutischen Laboratoriumspraxis, SpringerVerlag
BerlinCoettingen-Heidelberg, 1957.

Trypanosoma brucei = Trypanosoma brucei infection of the mouse; format: in vivo, mouse (NMRI strains); conditions: for recidivation: 25 days post-observation
Procedure: (§1) The action against infections caused by Trypanosomas and Entamoeba histolytica can be illustrated on the mouse (NMRI strains) using methods described in Handbuch fur experimentelle Pharmakologie, Erganzungswerk 16, Erzeugung von Krankheitszustanden durch das Experiment, Part 9, pages 150 to 292, Springer-Verlag, Berlin-Goettingen-Heidelberg, 1964.
1. Trypanosoma brucei--infections of the mouse
(§2) Various dosages were investigated. The curing of the infection was determined microscopically and in a culture. There was also post-observation for 25 days after treatment was discontinued in order to establish whether there was any recidivation

Trypanosoma gambiense = Trypanosoma gambiense infection of mouse; format: in vivo, mouse (NMRI strains)
Procedure: as §1, §2
2. Trypanosoma gambiense--infection of mouse
(§3) Same method as in the case of Trypanosoma brucei

Trypanosoma congolense = Trypanosoma congolense infection of mouse; format: in vivo, mouse (NMRI strains)
Procedure: as §1, §2
3. Trypanosoma congolense--infection of mouse
as §3

Entamoeba histolytica = Entamoeba histolytica in vitro tube-dilution test; format: cell-based; conditions: Entamoeba histolytica PN and Q strains, read-out: minimum inhibition concentration
Procedure: 4. Entamoeba histolytica (tube-dilution test)
The PN and Q strains were tested.
The minimum inhibition concentrations were as follows:
The experiments were carried out in vitro using the quantitative tube-dilution test described by P. Klein, Bakteriologische Grundlagen der chemotherapeutischen Laboratoriumspraxis, Springer-Verlag, Berlin-Goettingen-Heidelberg, 1957.

Trichomonas = Trichomonas vaginal infection of mice; format: in vivo; conditions: po, read-out: cure; for responders at 25 mg/kg: 5×25 mg/kg perorally; for responders at 50 mg/kg: 5×50 mg/kg perorally
Procedure: 5. Trichomonas vaginal--infection of mice Various dosages were investigated. The curing of the infection was determined microscopically and in a culture.

[1] = LD 50 toxicity on mice, oral; conditions: mouse, in vivo, NMRI strain, a week's observation period

SMILES: Cc1nnc(C=Cc2ncc([N+](=O)[O-])n2C)s1 [Example 1, 2-methyl-5-[2-(1-methyl-5-nitroimidazol-2-yl)-vinyl]-1,3,4-thiadiazole]
- Relative effectiveness Metronidazol = 1.0 (Trichomonas vaginalis): 5.0
- MIC (Trichomonas vaginalis): 0.02 mg/L (≈ 0.0796 µM)
- acute action (Trypanosoma brucei; 11×50 mg/kg perorally): 100%
- recidivation (Trypanosoma brucei; 11×50 mg/kg perorally): 70%
- acute action (Trypanosoma gambiense; 11×50 mg/kg perorally): 100%
- recidivation (Trypanosoma gambiense; 11×50 mg/kg perorally): 80%
- acute action (Trypanosoma congolense; 11×50 mg/kg perorally): 100%
- no recidivation (so in the source) (Trypanosoma congolense; 11×50 mg/kg perorally): 20%
- MIC (Entamoeba histolytica): < 0.01 mg/L
- responders at 25 mg/kg (Trichomonas): 100%
- LD50 at 168 h [1]: > 1500 mg/kg

- MIC (Trichomonas vaginalis): 0.01 mg/L (≈ 0.0319 µM)
- MIC (Entamoeba histolytica): 0.1 mg/L (≈ 0.319 µM)
SMILES: Cn1c([N+](=O)[O-])cnc1C=Cc1nnc(-c2ccccc2)s1 [Example 2, 2-phenyl-5-[2-(1-methyl-5-nitroimidazol-2-yl)-vinyl]-1,3,4-thiadiazole]
- Relative effectiveness Metronidazol = 1.0 (Trichomonas vaginalis): 10.0
- acute action (Trypanosoma brucei; 11×50 mg/kg perorally): no action
- acute action (Trypanosoma gambiense; 11×50 mg/kg perorally): no action
- acute action (Trypanosoma congolense; 11×50 mg/kg perorally): no action
- responders at 50 mg/kg (Trichomonas): 10%

- MIC (Trichomonas vaginalis): 0.01 mg/L (≈ 0.0318 µM)
- MIC (Entamoeba histolytica): < 0.01 mg/L
SMILES: Cn1c([N+](=O)[O-])cnc1C=Cc1nnc(-c2ccncc2)s1 [Example 5, 2-(4-pyridyl)-5-[2-(1-methyl-5-nitroimidazol-2-yl)-vinyl]-1,3,4-thiadiazole]
- Relative effectiveness Metronidazol = 1.0 (Trichomonas vaginalis): 10.0
- acute action (Trypanosoma brucei; 11×50 mg/kg perorally): no action
- acute action (Trypanosoma gambiense; 11×50 mg/kg perorally): no action
- acute action (Trypanosoma congolense; 11×50 mg/kg perorally): no action
- responders at 25 mg/kg (Trichomonas): 100%

- MIC (Trichomonas vaginalis): < 0.01 mg/L
- MIC (Entamoeba histolytica): < 0.01 mg/L
SMILES: Cn1c([N+](=O)[O-])cnc1C=Cc1nncs1 [Example 6, 2-[2-(1-methyl-5-nitroimidazol-2-yl)-vinyl]-1,3,4-thiadiazole]
- Relative effectiveness Metronidazol = 1.0 (Trichomonas vaginalis): > 10.0
- acute action (Trypanosoma brucei; 11×50 mg/kg perorally): no action
- acute action (Trypanosoma gambiense; 11×50 mg/kg perorally): no action
- acute action (Trypanosoma congolense; 11×50 mg/kg perorally): no action
- responders at 50 mg/kg (Trichomonas): 50%

SMILES: CCc1nnc(C=Cc2ncc([N+](=O)[O-])n2C)s1 [Example 7, 2-ethyl-5-[2-(1-methyl-5-nitroimidazol-2-yl)-vinyl]-1,3,4-thiadiazole]
- Relative effectiveness Metronidazol = 1.0 (Trichomonas vaginalis): > 10.0
- MIC (Trichomonas vaginalis): < 0.01 mg/L
- acute action (Trypanosoma brucei; 11×50 mg/kg (route not given)): 100%
- recidivation (Trypanosoma brucei; 11×50 mg/kg (route not given)): 30%
- acute action (Trypanosoma gambiense; 11×50 mg/kg perorally): no action
- acute action (Trypanosoma congolense; 11×50 mg/kg perorally): no action
- MIC (Entamoeba histolytica): < 0.01 mg/L
- responders at 50 mg/kg (Trichomonas): 100%
- LD50 at 168 h [1]: > 1500 mg/kg

SMILES: CCc1nnc(C(C)=Cc2ncc([N+](=O)[O-])n2C)s1 [Example 10, 2-ethyl-5-[1-methyl-2-(1-methyl-5-nitroimidazol-2-yl)-vinyl]-1,3,4-thiadiazole]
- Relative effectiveness Metronidazol = 1.0 (Trichomonas vaginalis): > 10.0
- MIC (Trichomonas vaginalis): < 0.01 mg/L
- acute action (Trypanosoma brucei; 11×50 mg/kg perorally): 100%
- recidivation (Trypanosoma brucei; 11×50 mg/kg perorally): no recidivation
- acute action (Trypanosoma gambiense; 11×50 mg/kg perorally): 100%
- recidivation (Trypanosoma gambiense; 11×50 mg/kg perorally): 60%
- acute action (Trypanosoma congolense; 11×50 mg/kg perorally): 100%
- recidivation (Trypanosoma congolense; 11×50 mg/kg perorally): no recidication
- MIC (Entamoeba histolytica): < 0.01 mg/L
- responders at 25 mg/kg (Trichomonas): 100%
- LD50 at 168 h [1]: > 1500 mg/kg

- MIC (Trichomonas vaginalis): 0.1 mg/L (≈ 0.584 µM)
- MIC (Entamoeba histolytica): 0.1 mg/L (≈ 0.584 µM)
SMILES: Cc1ncc([N+](=O)[O-])n1CCO [Metronidazol, reference compound]
- Relative effectiveness Metronidazol = 1.0 (Trichomonas vaginalis): 1.0
- acute action (Trypanosoma brucei; 11×50 mg/kg perorally): no action
- responders at 25 mg/kg (Trichomonas): 100%

SMILES: Cc1ccc(C(=O)Nc2ccc(S(=O)(=O)O)c3cc(S(=O)(=O)O)cc(S(=O)(=O)O)c23)cc1NC(=O)c1cccc(NC(=O)Nc2cccc(C(=O)Nc3cc(C(=O)Nc4ccc(S(=O)(=O)O)c5cc(S(=O)(=O)O)cc(S(=O)(=O)O)c45)ccc3C)c2)c1 [Suramin, reference compound]
- acute action (Trypanosoma brucei; 7×50 mg/kg intraperitoneally): 80%
- recidivation (Trypanosoma brucei; 7×50 mg/kg intraperitoneally): no recidivation
- acute action (Trypanosoma gambiense; 7×50 mg/kg intraperitoneally): 50%
- recidivation (Trypanosoma gambiense; 7×50 kg/mg intraperitoneally): no recidivation
- acute action (Trypanosoma congolense; 7×50 mg/kg intraperitoneally): 70%
- recidivation (Trypanosoma congolense; 7×50 mg/kg intraperitoneally): no recidivation

- MIC (Trichomonas vaginalis): 0.1 mg/L (≈ 0.404 µM)
SMILES: CCS(=O)(=O)CCn1c([N+](=O)[O-])cnc1C [Tinidazol, reference compound]
- Relative effectiveness Metronidazol = 1.0 (Trichomonas vaginalis): 1.0
- action (Trypanosoma brucei; 22×50 mg/kg perorally): no action
- responders at 25 mg/kg (Trichomonas): 100%
